Our source for the EC50, CC50 and SI values is ChEMBL document CHEMBL1130360, “3-[(3-Hydroxymethyl)-4-hydroxybutyl]imidazo[4,5-b]pyridinesnovel antiviral agents” (Bioorg Med Chem Lett, 1997).

Assay [1] has as its system Human alphaherpesvirus 1. Description: The compound was tested for the cytopathic effect inhibition against herpes simplex virus 1; Effective concentration required to inhibit 50% virus proliferation. Type of assay: functional, organism-based. (Cytopathic effects are the visible damage that an infection or toxin causes in cultured cells.)
The subject of assay [2] is Human alphaherpesvirus 3. As to the kind of experiment: The compound was tested for the viral plaque reduction against VZV virus; Effective concentration required to inhibit 50% virus proliferation. Type of assay: functional, organism-based.
In assay [3] the test system is HEL. Description: Cytotoxicity of compound against herpes simplex virus-2 infected human embryonic lung cells. Type of assay: functional.
Assay [4] is described as follows: Selectivity is determined by CC50/EC50 of VZV virus. Type of assay: functional.
Assay [5] has as its system Human alphaherpesvirus 2. As to the kind of experiment: (§1) The compound was tested for the cytopathic effect inhibition against herpes simplex virus 2; Effective concentration required to inhibit 50% virus proliferation. Type of assay: functional, organism-based.
Assay [6] is described as follows: Selectivity is determined by CC50/EC50 of cytopathic effect inhibition against herpes simplex virus 2. Type of assay: functional.
The nature of assay [7]: Selectivity is determined by CC50/EC50 of cytopathic effect inhibition against herpes simplex virus 1. Type of assay: functional.
The subject of assay [8] is Human betaherpesvirus 5. As to the kind of experiment: The compound was tested for the cytomegalovirus; Effective concentration required to inhibit 50% virus proliferation. Type of assay: functional, organism-based.
The test system of assay [9] is HEL. As to the kind of experiment: Cytotoxicity of compound against herpes simplex virus 1 infected human embryonic lung cells. Type of assay: functional.
Assay [10] has as its system HEL. As to the kind of experiment: Cytotoxicity of compound against varicella zoster virus infected human embryonic lung cells. Type of assay: functional.
Assay [11] is described as follows: Selectivity is determined by CC50/EC50 of cytomegalovirus. Type of assay: functional.
Assay [12] relates to HEL. Description: Cytotoxicity of compound against human cytomegalo virus infected human embryonic lung cells. Type of assay: functional.
Assay [13] is described as follows: Selectivity is determined by CC50/EC50 of viral plaque reduction against herpes simplex virus 1. Type of assay: functional.
In assay [14] the test system is Human alphaherpesvirus 1. As to the kind of experiment: The compound was tested for the viral plaque reduction against herpes simplex virus 1; Effective concentration required to inhibit 50% virus proliferation. Type of assay: functional, organism-based.
Assay [15] deals with Human alphaherpesvirus 2. Description: The compound was tested for the viral plaque reduction against herpes simplex virus 2; Effective concentration required to inhibit 50% virus proliferation. Type of assay: functional, organism-based.
Assay [16] is described as follows: Selectivity is determined by CC50/EC50 of viral plaque reduction against herpes simplex virus 2. Type of assay: functional.
Assay [17] relates to HEL. As to the kind of experiment: The compound was tested for the viral plaque reduction against herpes simplex virus 2; Cytotoxicity concentration required to reduce 50% human embryonic lung cells. Type of assay: functional.
For assay [18], the system named is Human alphaherpesvirus 3. The description is as §1.

SMILES strings stand for the structures. In brackets after ≈: the same amount, converted by molar mass. Bounds are passed on as bounds.

A word on the EC50: it is the midpoint of the concentration-response curve. A higher EC50 goes with lower potency in that assay. What is called CC50 is the concentration giving 50% cytotoxicity. For the compound `OCC(CO)CCn1cnc2cc(Cl)c(Cl)nc21`, the EC50 is greater than 100 µg/mL in assay [1], 11.7 µg/mL (≈ 40.3 µM) in [2], greater than 100 µg/mL in assay [5] and greater than 100 µg/mL in [8]. Also, the CC50 in [3], in assay [9], in assay [10] and in assay [12] was greater than 100 µg/mL each time. Also, the SI was greater than 8.5 in assay [4], 0 in assay [6], 0 in assay [7] and 0 in assay [11].
Consider `Nc1nc2c(cc1Cl)nc(C(F)(F)F)n2CCC(CO)CO`, for which the SI is given as 0 in [13]; 0 in [6]; greater than 83 in [7]; 0 in assay [16]; 0 in [11]. In addition, the EC50 in [1] was 1.2 µg/mL (≈ 3.54 µM); in [14] it was greater than 100 µg/mL; in assay [15] it was greater than 100 µg/mL; in [5] it was greater than 100 µg/mL; in assay [8], greater than 100 µg/mL. Moreover, the CC50 in assay [3], in assay [10], in assay [17] and in [12] was greater than 100 µg/mL in each case.
`CC(=O)OCC(CCn1cnc2cc(Cl)c(Cl)nc21)COC(C)=O` registered an EC50 in [8] of 132 µg/mL (≈ 353 µM).
On to `OCC(CO)CCn1cnc2nc(Cl)c(Cl)cc21`, for which the EC50 in assay [1] was greater than 100 µg/mL; in assay [2] it was 49.8 µg/mL (≈ 172 µM); in assay [5], greater than 100 µg/mL; in assay [8], greater than 100 µg/mL. Also, the CC50 in [3], in assay [10] and in assay [12] was greater than 100 µg/mL throughout. Also, the SI is given as greater than 2 in [4], 0 in [6], 0 in assay [7] and 0 in assay [11].
`Nc1nc2c(ncn2COCCO)c(=O)[nH]1` [ACYCLOVIR]: the EC50 in assay [18] is 0.6 µg/mL (≈ 2.66 µM); in [15], 1.1 µg/mL (≈ 4.88 µM); in assay [5], 0.2 µg/mL (≈ 0.888 µM).
Consider `Nc1nc2c(ncn2COC(CO)CO)c(=O)[nH]1` [GANCICLOVIR], for which the EC50 in assay [8] worked out at 0.1 µg/mL (≈ 0.392 µM).
